Source: patent US20080146576A1, “N-(1-Phthalazin-1-ylpiperidin-4-yl)amides as EP2 receptor modulators” (priority 2006, published 2008)
Where two headings read alike, the source gives them in different places.

Key:
[1] = target: T1, human prostaglandin E2 (subtype EP2) receptor (Homo sapiens, UniProt P43116); test: cAMP antagonism assay (HTRF cAMP, PGE2-stimulated cells); format: cell-based
T1 construct: host or cells: cells on a cell culture plate
Description: (§1) The binding of PGE2 to the EP2 subtype of the human PGE2 receptor induces activation of membrane-associated adenylate cyclases and leads to the formation of cAMP. In the presence of the phosphodiesterase inhibitor IBMX, cAMP which has accumulated due to this stimulation and been released by cell lysis is employed in a competitive detection method. In this assay, the cAMP in the lysate competes with cAMP-XL665 for binding of an Eu cryptate-labeled anti-cAMP antibody.
(§2) The two signals are measured in a suitable measuring instrument with a time lag, i.e. after the background fluorescence has declined.
(§3) The substance solutions (0.75 μl) containing 30% DMSO are introduced into an assay plate and dissolved in 16 μl of a KRSB+IBMX stimulation solution (1× Krebs-Ringer Bicarbonate Buffer; Sigma-Aldrich # K-4002; including 750 μM 3-isobutyl-1-methylxanthine Sigma-Aldrich # I-7018), and then 15 μl, thereof are transferred into a media-free cell culture plate which has been washed with KRSB shortly beforehand.
After preincubation at room temperature (RT) for 30 minutes, 5 μl of a 4×PGE2 solution (11 nM) are added, and incubation is carried out in the presence of the agonist at RT for a further 60 min (volume: ˜20 μl) before the reaction is then stopped by adding 5 μl of lysis buffer and incubated at RT for a further 20 min (volume: ˜25 μl). The cell lysate is then transferred into a measuring plate and measured in accordance with the manufacturer's information (cyclic AMP kit Cisbio International #62AMPPEC).

[2] = target: T1, human prostaglandin E2 (subtype EP2) receptor; test: cAMP agonism assay (HTRF cAMP); format: cell-based
Description: as §1, §2
as §3, with “μl” for “μl,”
After incubation at room temperature (RT; volume: ˜15 μl) for 60 minutes, the reaction is then stopped by adding 5 μl of lysis buffer and incubated at RT for a further 20 min (volume: ˜20 μl). The cell lysate is then transferred into a measuring plate and measured in accordance with the manufacturer's information (cyclic AMP kit Cisbio International #62AMPPEC).

cumulus-oocyte complexes = test: Cumulus expansion assay in vitro; format: cell-based, mice; settings: competing with PGE2
Description: Folliculogenesis is induced in immature female mice (strain: CD1 (ICR) from Charles River) at an age of 14-18 days by a single dose (intraperitoneally) of 10 I.U. of PMSG (Pregnant Mare Serum Gonadotropin; Sigma G-4877, Batch 68H0909). 47-50 hours after the injection, the ovaries are removed and the cumulus-oocyte complexes are removed. The cumulus complex is not yet expanded at this stage.
The cumulus-oocyte complexes are then incubated with prostaglandin E2 (PGE2) (1 μM), vehicle control (ethanol) or test substances for 20-24 hours. Medium: alpha-MEM medium with 0.1 mM IBMX, pyruvates (0.23 mM), glutamines (2 mM), pen/strep (100 IU/ml pen. and 100 μg/ml strep.) and HSA (8 mg/ml). Cumulus expansion is then established through the division into four stages (according to Vanderhyden et al. Dev Biol. 1990 August; 140(2):307-317).

[3] = cAMP assay in presence of PGE2, read-out: Antagonism [IC50
[4] = cAMP assay, no PGE2 added, read-out: Agonism [ED50

T1 sequence (P43116 whole entry): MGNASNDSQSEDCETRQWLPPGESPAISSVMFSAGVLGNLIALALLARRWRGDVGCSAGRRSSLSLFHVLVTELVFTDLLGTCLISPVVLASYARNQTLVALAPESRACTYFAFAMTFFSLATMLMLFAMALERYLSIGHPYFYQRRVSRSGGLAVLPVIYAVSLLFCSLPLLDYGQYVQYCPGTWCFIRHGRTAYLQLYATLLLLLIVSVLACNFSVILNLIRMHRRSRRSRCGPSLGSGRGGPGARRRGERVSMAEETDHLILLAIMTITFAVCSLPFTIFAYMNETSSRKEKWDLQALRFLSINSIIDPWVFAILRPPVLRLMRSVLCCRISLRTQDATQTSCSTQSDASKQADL

IC50 [1, 3] | EC50 [2, 4] | IC50 ([1]; read-out: IC50 in the antagonism test) | EC50 ([2]; read-out: EC50 in the cellular agonism test) | SMILES | suppression of cumulus expansion (cumulus-oocyte complexes; at a concentration of 100-200 μM) | suppression of cumulus expansion (cumulus-oocyte complexes; at one tenth of the concentration (of 100-200 μM))
500 nM | > 19000 nM | – | – | Cc1nnc(N2CCC(NC(=O)c3cccc(Cl)c3Cl)CC2)c2ccc(Br)cc12 [Example 4, N-[1-(6-Bromo-4-methyl-phthalazin-1-yl)-piperidin-4-yl]-2,3-dichloro-benzamide] | – | –
700 nM | > 19000 nM | – | – | Cc1nnc(N2CCC(NC(=O)c3cccc(Cl)c3Cl)CC2)c2cc(Br)ccc12 [Example 3, N-[1-(7-Bromo-4-methyl-phthalazin-1-yl)-piperidin-4-yl]-2,3-dichloro-benzamide] | – | –

The remaining lines, values behind:

SMILES | IC50 [1, 3] | EC50 [2, 4] | IC50 ([1]; read-out: IC50 in the antagonism test) | EC50 ([2]; read-out: EC50 in the cellular agonism test) | suppression of cumulus expansion (cumulus-oocyte complexes; at a concentration of 100-200 μM) | suppression of cumulus expansion (cumulus-oocyte complexes; at one tenth of the concentration (of 100-200 μM))
CC(C)Oc1ccc2c(=O)c3cc(C(=O)O)ccc3oc2c1 [AH 6809, reference compound] | – | – | – | – | about 20% | –
O=C(NC1CCN(c2nncc3ccc(Br)cc23)CC1)c1cccc(Cl)c1Cl [Example 1, N-[1-(7-Bromo-phthalazin-1-yl)-piperidin-4-yl]-2,3-dichloro-benzamide] | 300 nM | > 19000 nM | – | – | – | –
O=C(NC1CCN(c2nncc3cc(Br)ccc23)CC1)c1cccc(Cl)c1Cl [Example 2, N-[1-(6-Bromo-phthalazin-1-yl)-piperidin-4-yl]-2,3-dichloro-benzamide] | – | > 19000 nM | 200 nM | > 19000 nM | – | 35%
